From publication PMC4084896 (PLoS ONE, 2014)
In brackets after ≈: the same amount, converted by molar mass.

Legend:
[1] = tested on: C. albicans 978; experiment: MIC assessment, microdilution; type: cell-based; conditions: 48 h, 37°C, MFC same as MIC
Description: (§1) Antifungal activity was assessed using the standard microdilution method determining the minimum inhibitory concentrations (MICs) of the tested samples leading to inhibition of yeast growth. Disposable microtiter plates were used for the tests. The samples were diluted in brain heart infusion broth (HiMedia). […] C. albicans, C. krusei, C. tropicalis and C. parapsilosis. […] Subsequently, 100 µL were transferred into the first microplate well and serially diluted by a factor of 2. The prepared microplates were inoculated with a standard amount of the tested Candida spp. – the inoculum density in a well was equal to 10^5 CFU/mL. […] The minimum fungicidal concentration (MFC) is the minimum concentration of the sample required to kill the yeast after a defined period of incubation. The MFCs were determined by the inoculation method. With an applicator, 10 µL were transferred from the microplate wells with defined concentrations of the tested sample and inoculated onto Sabouraud agar (Trios). The MFC was determined as the lowest concentration that inhibited the visible growth of the used yeast. For growth curve assessment, the samples were serially diluted in 96-well microtiter plates. […] Absorbance (630 nm) was measured every hour during 24 hours and the obtained values were used to plot growth curves

[2] = tested on: C. albicans 1; experiment: MIC assessment, microdilution; type: cell-based; conditions: 48 h, 37°C, MFC same as MIC
Description: as §1

[3] = tested on: C. tropicalis 5; experiment: MIC assessment, microdilution; type: cell-based; conditions: 48 h, 37°C, MFC same as MIC
Description: as §1

[4] = tested on: CYP1A1 catalytic activity (7-ethoxyresorufin-O-deethylase)

SMILES	MIC/MFC [1] [µM]	MIC/MFC [2] [µM]	MIC/MFC [3] [µM]	EROD activity (in words) [4]
CC(=O)N1CCN(c2ccc(OC[C@H]3CO[C@](Cn4ccnc4)(c4ccc(Cl)cc4Cl)O3)cc2)CC1 [(+)-KET, (2R,4S)-(+)-KET]	25 (≈ 13.3 µg/mL)	25 (≈ 13.3 µg/mL)	3.13 (≈ 1.66 µg/mL)	–
CC(=O)N1CCN(c2ccc(OCC3COC(Cn4ccnc4)(c4ccc(Cl)cc4Cl)O3)cc2)CC1 (racemic) [rac-KET, ketoconazole]	–	–	–	increased the EROD activity in a concentration-dependent manner
